Assay results published in patent US20250144067A1, “PERSONALIZED STARVATION THERAPY FOR CANCER” (Faeth Therapeutics, Inc., priority 2021, published 2025).
Where a name gives a salt, the structure may show the parent alone. Read-outs that look alike come from different tables or passages of the source.

Experiments:
[1] = tested on: NCI-H292 lung cancer cells; assay: FDA drug screening, complete media vs cholesterol-free media with simvastatin (TABLE 2); assay type: cell-based, human
[2] = tested on: NCI-H292 lung cancer cells; assay: FDA drug screening, complete media vs cholesterol-free media without statin (TABLE 1); assay type: cell-based, human
[3] = NCI-H292 cells, drug in cholesterol-free media with simvastatin 0.04 μM
[4] = NCI-H292 cells, drug in complete media
[5] = complete media vs cholesterol-free media + simvastatin (0.04 μM), >0 enhanced anti-cancer activity, about 0 neutral, <0 antagonist
[6] = Complete minus Cholesterol-free, >0 enhanced anti-cancer activity, about 0 neutral, <0 antagonist
[7] = NCI-H292 cells, cholesterol-free media without statin, FDA drug library screen
[8] = NCI-H292 cells, complete media, FDA drug library screen
[9] = NCI-H292 cells, cholesterol-free media with simvastatin 0.04 μM, FDA drug library screen (TABLE 2)
[10] = complete media minus cholesterol-free media + simvastatin (0.04 μM), […]
[11] = NCI-H292 cells, cholesterol-free media with simvastatin 0.04 μM, cell growth value in FDA drug screen
[12] = NCI-H292 cells, complete media, cell growth value in FDA drug screen
[13] = complete media minus cholesterol-free media + simvastatin, >0 enhanced anti-cancer activity, about 0 neutral, <0 antagonist
[14] = NCI-H292 cells, cholesterol-free media without statin
[15] = complete vs cholesterol-free media, greater than 0 enhanced anti-cancer activity, about 0 neutral, below 0 antagonists
[16] = NCI-H292 cells, complete media, FDA drug library screen (TABLE 2)
[17] = complete media minus cholesterol-free media + simvastatin (0.04 μM), >0 enhanced anti-cancer activity, about 0 neutral, <0 antagonist
[18] = complete vs cholesterol-free media, >0 enhanced anti-cancer activity, about 0 neutral, <0 antagonist
[19] = NCI-H292 cells, FDA drug library screen, cholesterol-free media with simvastatin 0.04 μM
[20] = NCI-H292 cells, FDA drug library screen, complete media
[21] = complete media minus cholesterol-free media + simvastatin, […]
[22] = Complete minus Cholesterol-free, […]
[23] = Complete minus Cholesterol-free, greater than 0 enhanced anti-cancer activity, about 0 neutral, below 0 antagonists
[24] = NCI-H292 cells in cholesterol-free media without statin
[25] = NCI-H292 cells in complete media
[26] = NCI-H292 cells, FDA drug library screen, cholesterol-free media without statin
[27] = complete media vs cholesterol-free media + simvastatin (0.04 μM), […]

## Potassium guaiacolsulfonate (hemihydrate)
[1]
  Cholesterol-free media + simvastatin (0.04 μM): 1.702
  Complete Media: 1.838
  Difference: 0.14
[2]
  Cholesterol-free: 1.74
  Complete: 0.9478
  Difference: −0.79

## CO/N=C(\C(=O)N[C@@H]1C(=O)N2C(C(=O)[O-])=C(CSc3nc(C)c(CC(=O)[O-])s3)CS[C@H]12)c1csc(N)n1.[Na+].[Na+] [Cefodizime (sodium)]
[1]; [3]
  Cholesterol-free media + simvastatin (0.04 μM): 1.29
[1]; [4]
  Complete Media: 1.088
[1]; [5]
  Difference: −0.20
[2]; [6]
  Difference: 0.06
[2]; [7]
  Cholesterol-free: 1.009
[2]; [8]
  Complete: 1.069

## Catechin
[1]; [9]
  Cholesterol-free media + simvastatin (0.04 μM): 1.661
[1]; [10]
  Difference: −0.02
[2]; NCI-H292 cells, complete media
  Complete: 0.7264
[2]; complete vs cholesterol-free media, […]
  Difference: −0.38

## C=CCN1CCCC1CNC(=O)c1cc2[nH]nnc2cc1OC (stereo not shown) [Alizapride hydrochloride]
[1]; [11]
  Cholesterol-free media + simvastatin (0.04 μM): 1.019
[1]; [12]
  Complete Media: 1.057
[1]; [13]
  Difference: 0.04
[2]; [14]
  Cholesterol-free: 1.222
[2]; NCI-H292 cells, complete media
  Complete: 0.9062
[2]; [15]
  Difference: −0.32

## Nc1c2c(nc3ccccc13)CCCC2 [Tacrine hydrochloride hydrate]
[1]; [9]
  Cholesterol-free media + simvastatin (0.04 μM): 1.406
[1]; [16]
  Complete Media: 1.383
[1]; [17]
  Difference: −0.02
[2]; [7]
  Cholesterol-free: 1.254
[2]; [8]
  Complete: 1.477
[2]; [18]
  Difference: 0.22

## CN1CCN(C2=Nc3ccccc3Oc3ccc(Cl)cc32)CC1 [Loxapine]
[1]; [11]
  Cholesterol-free media + simvastatin (0.04 μM): 0.8194
[1]; [12]
  Complete Media: 0.9125
[1]; [13]
  Difference: 0.09
[2]; [6]
  Difference: −0.26
[2]; [14]
  Cholesterol-free: 1.313
[2]; NCI-H292 cells, complete media
  Complete: 1.056

## N=C(N)N [Guanidine (hydrochloride)]
[1]; [3]
  Cholesterol-free media + simvastatin (0.04 μM): 1.136
[1]; [4]
  Complete Media: 0.9286
[1]; [5]
  Difference: −0.21
[2]; [7]
  Cholesterol-free: 0.9919
[2]; [8]
  Complete: 1.237
[2]; [18]
  Difference: 0.24

## Gadoxetate (Disodium)
[1]; [19]
  Cholesterol-free media + simvastatin (0.04 μM): 1.553
[1]; [20]
  Complete Media: 1.778
[1]; [21]
  Difference: 0.22
[2]; [22]
  Difference: −0.26
[2]; [14]
  Cholesterol-free: 1.164
[2]; NCI-H292 cells, complete media
  Complete: 0.9023

## CC(=O)O[C@]1(C(C)=O)CC[C@H]2[C@@H]3C[C@H](C)C4=CC(=O)CC[C@]4(C)[C@H]3CC[C@@]21C [Medroxyprogesterone acetate]
[1]; [19]
  Cholesterol-free media + simvastatin (0.04 μM): 1.001
[1]; [20]
  Complete Media: 0.9291
[1]; [5]
  Difference: −0.07
[2]; [14]
  Cholesterol-free: 1.058
[2]; NCI-H292 cells, complete media
  Complete: 0.6058
[2]; [15]
  Difference: −0.45

## Cc1ccc(C)c(OCCCC(C)(C)C(=O)O)c1 [Gemfibrozil]
[1]; [19]
  Cholesterol-free media + simvastatin (0.04 μM): 1.808
[1]; [20]
  Complete Media: 1.701
[1]; [5]
  Difference: −0.11
[2]; [14]
  Cholesterol-free: 1.369
[2]; NCI-H292 cells, complete media
  Complete: 0.9198
[2]; [15]
  Difference: −0.45

## CC(C)Cc1ccc([C@@H](C)C(=O)O)cc1 [(R)-(—)-Ibuprofen]
[2]; [23]
  Difference: −0.96
[2]; [24]
  Cholesterol-free: 1.742
[2]; [25]
  Complete: 0.7774

## Dexchlorpheniramine (maleate)
[1]; [9]
  Cholesterol-free media + simvastatin (0.04 μM): 0.9393
[1]; [16]
  Complete Media: 0.9459
[1]; [17]
  Difference: 0.01
[2]; [6]
  Difference: −0.05

## CCCCC(F)(F)[C@@]1(O)CC[C@H]2[C@@H](CC(=O)[C@@H]2CCCCCCC(=O)O)O1 [Lubiprostone]
[1]; [19]
  Cholesterol-free media + simvastatin (0.04 μM): 1.061
[1]; [20]
  Complete Media: 1.267
[1]; [13]
  Difference: 0.21
[2]; [6]
  Difference: −0.28
[2]; [14]
  Cholesterol-free: 1.064
[2]; NCI-H292 cells, complete media
  Complete: 0.7833

## COc1ccc(C(C)=O)c(O)c1 [Paeonol]
[1]; [11]
  Cholesterol-free media + simvastatin (0.04 μM): 1.081
[1]; [12]
  Complete Media: 1.107
[1]; [13]
  Difference: 0.03
[2]; [6]
  Difference: −0.29
[2]; [14]
  Cholesterol-free: 1.074
[2]; NCI-H292 cells, complete media
  Complete: 0.7804

## COc1ncnc(NS(=O)(=O)c2ccc(N)cc2)c1OC [Sulfadoxine]
[1]; [9]
  Cholesterol-free media + simvastatin (0.04 μM): 1.1
[1]; [16]
  Complete Media: 1.093
[1]; [17]
  Difference: −0.01
[2]; [6]
  Difference: −0.27
[2]; [14]
  Cholesterol-free: 1.26
[2]; NCI-H292 cells, complete media
  Complete: 0.986

## NC(=O)C(c1ccccc1)(c1ccccc1)[C@@H]1CCN(CCc2ccc3c(c2)CCO3)C1 [Darifenacin (hydrobromide)]
[1]; [19]
  Cholesterol-free media + simvastatin (0.04 μM): 1.197
[1]; [20]
  Complete Media: 1.073
[1]; [5]
  Difference: −0.12
[2]; Complete minus Cholesterol-free, greater than 0 enhanced anti-cancer activity, about 0 neutral, below 0 antagonist
  Difference: −0.11
[2]; [26]
  Cholesterol-free: 1.186
[2]; [20]
  Complete: 1.075

## CO[C@@]1(NC(=O)C(C(=O)O)c2ccc(O)cc2)C(=O)N2C(C(=O)O)=C(CSc3nnnn3C)CO[C@@H]21 (stereo partly shown) [Moxalactam (sodium salt)]
[1]; NCI-H292 cells, FDA library drug in cholesterol-free media with simvastatin 0.04 μM
  Cholesterol-free media + simvastatin (0.04 μM): 1.994
[1]; NCI-H292 cells, FDA library drug in complete media
  Complete Media: 1.097
[1]; [5]
  Difference: −0.90
[2]; [23]
  Difference: −0.79
[2]; [24]
  Cholesterol-free: 1.849
[2]; [25]
  Complete: 1.058

## CSCCC(N)C(=O)O (racemic) [DL-Methionine]
[1]; [11]
  Cholesterol-free media + simvastatin (0.04 μM): 0.9866
[1]; [12]
  Complete Media: 1.007
[1]; [13]
  Difference: 0.02
[2]; [6]
  Difference: −0.06
[2]; [7]
  Cholesterol-free: 1.381
[2]; [8]
  Complete: 1.325

## CC(O)C(=O)O.CCOc1ccc2nc3cc(N)ccc3c(N)c2c1 [Ethacridine (lactate)]
[1]; [19]
  Cholesterol-free media + simvastatin (0.04 μM): 0.2653
[1]; [20]
  Complete Media: 0.1668
[1]; [27]
  Difference: −0.10
[2]; [22]
  Difference: −0.28
[2]; [14]
  Cholesterol-free: 0.3206
[2]; NCI-H292 cells, complete media
  Complete: 0.04483

## CCn1nc(C(=O)O)c(=O)c2cc3c(cc21)OCO3 [Cinoxacin]
[1]; [11]
  Cholesterol-free media + simvastatin (0.04 μM): 0.9547
[1]; [12]
  Complete Media: 0.9782
[1]; [13]
  Difference: 0.02
[2]; [6]
  Difference: −0.05
[2]; [7]
  Cholesterol-free: 0.9965
[2]; [8]
  Complete: 0.951

## CCN(CC)C(=O)C1(c2ccccc2)CC1CN.Cl (stereo not drawn) [Milnacipran ((1S-cis)hydrochloride)]
[2]; [22]
  Difference: −0.18
[2]; [26]
  Cholesterol-free: 1.07
[2]; [20]
  Complete: 0.894

## Escin
[2]; [22]
  Difference: −0.22
[2]; [14]
  Cholesterol-free: 1.276

## Dihydroergotoxine (mesylate)
[1]; [9]
  Cholesterol-free media + simvastatin (0.04 μM): 0.9089
[1]; [16]
  Complete Media: 0.9065
[1]; [10]
  Difference: 0.00

## NS(=O)(=O)c1cc(C(=O)O)c(NCc2ccco2)cc1Cl [Furosemide]
[1]; [3]
  Cholesterol-free media + simvastatin (0.04 μM): 1.11
[1]; [4]
  Complete Media: 0.894
[1]; [5]
  Difference: −0.22

## CCN(CC)C(=O)C1(c2ccccc2)CC1CN.Cl (stereo not drawn) [Milnacipran ((1S-cis) hydrochloride)]
[1]; [19]
  Cholesterol-free media + simvastatin (0.04 μM): 0.9487
[1]; [20]
  Complete Media: 0.8731
[1]; [27]
  Difference: −0.08

## γ-Oryzanol
[1]; [20]
  Complete Media: 1.39
[1]; [21]
  Difference: 0.24

## NS(=O)(=O)c1cc(C(=O)O)c(NCc2ccco2)cc1Cl [Furosemide (sodium)]
[1]; [9]
  Cholesterol-free media + simvastatin (0.04 μM): 1.074
[1]; [16]
  Complete Media: 1.02
[1]; [17]
  Difference: −0.05

## CC(C)Cc1ccc([C@@H](C)C(=O)O)cc1 [(R)-(−)-Ibuprofen]
[1]; [17]
  Difference: 0.01
